Patent publication USRE31396E, “A-21978 Antibiotics and process for their production” (priority 1982, dated 1983)
Values after ≈ are worked out from the molar mass of the structure shown. Like-named read-outs stand apart in the source and are kept apart here.

Key:
[1] = tested on: Staphylococcus aureus 3055; test: Standard agar-dilution test; assay type: cell-based
[2] = tested on: Group D Streptococcus 282; test: Standard agar-dilution test; assay type: cell-based
[3] = tested on: Streptococcus pyogenes C203; test: Standard agar-dilution test; assay type: cell-based
[4] = tested on: Streptococcus pneumoniae Park I; test: Standard agar-dilution test; assay type: cell-based
[5] = tested on: Viridans Streptococcus 9943; test: Standard agar-dilution test; assay type: cell-based
[6] = tested on: Neisseria gonorrhoeae 111076-4; test: Standard agar-dilution test; assay type: cell-based
[7] = tested on: Staphylococcus aureus 3055; test: Standard broth-dilution test; assay type: cell-based
[8] = tested on: Group D Streptococcus 282; test: Standard broth-dilution test; assay type: cell-based
[9] = tested on: Streptococcus pyogenes C203; test: Standard broth-dilution test; assay type: cell-based
[10] = tested on: Streptococcus pneumoniae Park I; test: Standard broth-dilution test; assay type: cell-based
[11] = tested on: Viridans Streptococcus 9943; test: Standard broth-dilution test; assay type: cell-based
Staphylococcus aureus [12] = test: ICS agar-dilution, clinical isolates; assay type: cell-based; conditions: Staphylococcus aureus (10 isolates), MIC or MIC range of isolates
[13] = tested on: Staphylococcus epidermidis; test: ICS agar-dilution, clinical isolates; assay type: cell-based; conditions: Staphylococcus epidermidis (12 isolates)
Actinomyces israelii = test: Standard agar-dilution test, anaerobic bacteria; assay type: cell-based; conditions: anaerobe
Clostridium perfringens = assay type: cell-based; conditions: anaerobe
Clostridium septicum = test: Standard agar-dilution test, anaerobic bacteria; assay type: cell-based; conditions: anaerobe
Eubacterium aerofaciens = test: Standard agar-dilution test, anaerobic bacteria; assay type: cell-based; conditions: anaerobe
[14] = tested on: Peptococcus asaccharolyticus; test: Standard agar-dilution test, anaerobic bacteria; assay type: cell-based; conditions: anaerobe
Peptococcus prevoti = test: Standard agar-dilution test, anaerobic bacteria; assay type: cell-based; conditions: anaerobe
[15] = tested on: Peptostreptococcus anaerobius; test: Standard agar-dilution test, anaerobic bacteria; assay type: cell-based; conditions: anaerobe
[16] = tested on: Peptostreptococcus intermedius; test: Standard agar-dilution test, anaerobic bacteria; assay type: cell-based; conditions: anaerobe
Propionibacterium acnes = test: Standard agar-dilution test, anaerobic bacteria; assay type: cell-based; conditions: anaerobe
Bacteroides fragilis = test: Standard agar-dilution test, anaerobic bacteria; assay type: cell-based; conditions: anaerobe
Fusobacterium symbiosum = test: Standard agar-dilution test, anaerobic bacteria; assay type: cell-based; conditions: anaerobe
[17] = tested on: Fusobacterium necrophorum; test: Standard agar-dilution test, anaerobic bacteria; assay type: cell-based; conditions: anaerobe
Staphylococcus aureus [18] = test: Agar dilution MIC (Table XV); assay type: cell-based
Source text: (§1) ^1 MIC = minimum inhibitory concentration (μg/ml), agar dilution

Streptococcus pneumoniae [19] = test: Agar dilution MIC (Table XV); assay type: cell-based
Source text: as §1

Streptococcus pyogenes [20] = test: Agar dilution MIC (Table XV); assay type: cell-based
Source text: as §1

Staphylococcus aureus [21] = test: Experimental bacterial infection in mice; assay type: in vivo; conditions: subcutaneous administration, two doses
Procedure: (§2) When two doses of test compound were administered to mice in illustrative infections, the activity observed as measured as an ED50 value [effective dose in mg/kg to protect fifty percent of the test animals: See Warren Wick, et al., J. Bacteriol. 81, 233-235 (1961)].

Streptococcus pneumoniae [22] = test: Experimental bacterial infection in mice; assay type: in vivo; conditions: subcutaneous administration, two doses
Procedure: as §2

Streptococcus pyogenes [23] = test: Experimental bacterial infection in mice; assay type: in vivo; conditions: two doses
Procedure: as §2

[24] = tested on: Streptococcus faecalis (Guze); test: In vitro susceptibility of the S. faecalis Guze strain; assay type: cell-based
Source text: ^1 In vitro susceptibility of the S. faecalis Guze strain

[25] = Mouse
[26] = Rat, IV
Micrococcus luteus = test: Paper-disc agar-diffusion bioassay; conditions: Na salts
[27] = tested on: Streptococcus faecalis (Guze); test: Streptococcus faecalis descending rat pyelonephritis test; conditions: rat dose 1.0 mg/kg × 7, subcutaneous

**Q.** For CCC(C)CCCCCCC(=O)NC(Cc1c[nH]c2ccccc12)C(=O)NC(CC(N)=O)C(=O)NC(CC(=O)O)C(=O)NC1C(=O)NCC(=O)NC(CCCN)C(=O)NC(CC(=O)O)C(=O)NC(C)C(=O)NC(CC(=O)O)C(=O)NCC(=O)NC(CO)C(=O)NC(C(C)CC(=O)O)C(=O)NC(CC(=O)c2ccccc2N)C(=O)OC1C (stereo not shown) [Factor C1], which MIC [1] is on record?
**A.** Its MIC is 0.5 µg/mL (≈ 0.306 µM).

**Q.** What about the MIC [2] of the same molecule?
**A.** The MIC was 1.0 µg/mL (≈ 0.612 µM).

**Q.** And the MIC [3]?
**A.** Its MIC is 0.13 µg/mL (≈ 0.0795 µM).

**Q.** And the MIC [4]?
**A.** Its MIC is 0.13 µg/mL (≈ 0.0795 µM).

**Q.** And the MIC [5]?
**A.** Its MIC is 0.5 µg/mL (≈ 0.306 µM).

**Q.** What about the MIC [6] of the same molecule?
**A.** The MIC was 16.0 µg/mL (≈ 9.79 µM).

**Q.** And the MIC [7]?
**A.** The MIC was 1.0 µg/mL (≈ 0.612 µM).

**Q.** What about the MIC [8] of the same molecule?
**A.** The MIC was 2.0 µg/mL (≈ 1.22 µM).

**Q.** What about the MIC [9] of the same molecule?
**A.** The MIC was 0.5 µg/mL (≈ 0.306 µM).

**Q.** And the MIC [10]?
**A.** Its MIC is 2.0 µg/mL (≈ 1.22 µM).

**Q.** And the MIC [11]?
**A.** The MIC was 32.0 µg/mL (≈ 19.6 µM).

**Q.** What about the “Minimum Inhibitory Concentration” value (Staphylococcus aureus [12]) of the same molecule?
**A.** The value was 0.5 µg/mL.

**Q.** What about the “Minimum Inhibitory Concentration” value [13] of the same molecule?
**A.** Its value is 0.13 to 0.25 µg/mL.

**Q.** What about the MIC (Actinomyces israelii) of the same molecule?
**A.** The MIC was 4 µg/mL (≈ 2.45 µM).

**Q.** What about the MIC (Clostridium perfringens) of the same molecule?
**A.** Its MIC is 16 µg/mL (≈ 9.79 µM).

**Q.** What about the MIC (Clostridium septicum) of the same molecule?
**A.** The MIC was 4 µg/mL (≈ 2.45 µM).

**Q.** And the MIC (Eubacterium aerofaciens)?
**A.** Its MIC is 16 µg/mL (≈ 9.79 µM).

**Q.** And the MIC [14]?
**A.** Its MIC is 4 µg/mL (≈ 2.45 µM).

**Q.** What about the MIC (Peptococcus prevoti) of the same molecule?
**A.** Its MIC is 2 µg/mL (≈ 1.22 µM).

**Q.** And the MIC [15]?
**A.** The MIC was 2 µg/mL (≈ 1.22 µM).

**Q.** What about the MIC [16] of the same molecule?
**A.** The MIC was 4 µg/mL (≈ 2.45 µM).

**Q.** What about the MIC (Propionibacterium acnes) of the same molecule?
**A.** Its MIC is 8 µg/mL (≈ 4.89 µM).

**Q.** And the MIC (Bacteroides fragilis)?
**A.** Its MIC is > 128 µg/mL.

**Q.** And the MIC (Fusobacterium symbiosum)?
**A.** The MIC was > 128 µg/mL.

**Q.** And the MIC [17]?
**A.** Its MIC is 64 µg/mL (≈ 39.2 µM).

**Q.** And the MIC (Staphylococcus aureus [18])?
**A.** The MIC was 0.5 µg/mL (≈ 0.306 µM).

**Q.** And the MIC (Streptococcus pneumoniae [19])?
**A.** The MIC was 0.13 µg/mL (≈ 0.0795 µM).

**Q.** And the MIC (Streptococcus pyogenes [20])?
**A.** Its MIC is 0.13 µg/mL (≈ 0.0795 µM).

**Q.** What about the ED50 (Staphylococcus aureus [21]) of the same molecule?
**A.** The ED50 was 0.22 mg/kg.

**Q.** And the ED50 (Streptococcus pneumoniae [22])?
**A.** Its ED50 is 0.3 mg/kg.

**Q.** And the ED50 (Streptococcus pyogenes [23]; oral administration)?
**A.** Its ED50 is 93 mg/kg.

**Q.** What about the ED50 (Streptococcus pyogenes [23]; subcutaneous administration) of the same molecule?
**A.** Its ED50 is 0.064 mg/kg.

**Q.** And the MIC [24]?
**A.** The MIC was 1.0 µg/mL (≈ 0.612 µM).

**Q.** And the LD50 ([25]; IV)?
**A.** The LD50 was > 250 mg/kg.

**Q.** What about the LD50 ([25]; SC) of the same molecule?
**A.** The LD50 was > 365 mg/kg.

**Q.** And the LD50 [26]?
**A.** Its LD50 is 479 ± 32 mg/kg.

**Q.** What about the “Bioassay (Micrococcus luteus)” value (Micrococcus luteus) of the same molecule?
**A.** Its value is 1663 units/mg.

**Q.** What about the “Percent of Rats with a 4-Log Titer Decrease” value [27] of the same molecule?
**A.** The value was 50.

**Q.** And the “Percent of Rats Cured” value ([27]; kidney counts less than 10^2 per g)?
**A.** The value was 50.

**Q.** For CN[C@H](CC(C)C)C(=O)N[C@H]1C(=O)N[C@@H](CC(N)=O)C(=O)N[C@H]2C(=O)N[C@H]3C(=O)N[C@H](C(=O)N[C@H](C(=O)O)c4cc(O)cc(O)c4-c4cc3ccc4O)[C@H](O)c3ccc(c(Cl)c3)Oc3cc2cc(c3O[C@@H]2O[C@H](CO)[C@@H](O)[C@H](O)[C@H]2O[C@H]2C[C@](C)(N)[C@H](O)[C@H](C)O2)Oc2ccc(cc2Cl)[C@H]1O [Vancomycin, reference compound], which MIC ([24]; Enterococcus faecalis, read-out: MIC) is on record?
**A.** Its MIC is 1 µg/mL (≈ 0.69 µM).
